Where two headings read alike, the source gives them in different places.
Key:
[1] = tested on: CD8+ T cells, macrophages, dendritic cells; experiment: Immune cells in tumors and spleens of treated mice; format: in vivo
Excerpt: The combination therapy of the invention provides many beneficial and unexpected therapeutic effects as evidenced by mice treated with SEQ ID NO: 2, the murine surrogate for SEQ ID NO: 1.

[2] = tested on: MC38 murine colon carcinoma cells; details: for Median TTE: endpoint 1000 mm^3, 53 days; for Regressions CR: number of complete regressions; for Regressions PR: number of partial regressions; for Regressions TFS: tumor free survivors
[3] = tested on: CD8+T cells, NK cells, Tregs; details: first in human clinical data, U.S. Patent Publication Number 20210038684A1; cited from earlier work
[4] = Group 2: Lenvatinib 10 mg/kg po qd × 28 (vehicle 1 sc)
[5] = Group 2: Lenvatinib 10 mg/kg po qd × 28
[6] = Group 3: Lenvatinib 30 mg/kg po qd × 28 (vehicle 1 sc)
[7] = Group 3: Lenvatinib 30 mg/kg po qd × 28
[8] = Group 4: Lenvatinib 100 mg/kg po qd × 28 (vehicle 1 sc)
[9] = Group 4: Lenvatinib 100 mg/kg po qd × 28

## COc1cc2nccc(Oc3ccc(NC(=O)NC4CC4)c(Cl)c3)c2cc1C(N)=O [Lenvatinib, 4-[3-Chloro-4-(cyclopropylaminocarbonyl)aminophenoxy]-7-methoxy-6-quinolinecarboxamide]
[1]
  macrophages: decrease in macrophages
[2]; [4]
  % TGD: 168%
  T − C: 24.0 days
  Median TTE: 38.3 days
[2]; [5]
  Regressions CR: 0
  Regressions PR: 1
  Regressions TFS: 0
[2]; [6]
  % TGD: 162%
  T − C: 23.1 days
  Median TTE: 37.4 days
[2]; [7]
  Regressions CR: 0
  Regressions PR: 0
  Regressions TFS: 0
[2]; [8]
  % TGD: 164%
  T − C: 23.4 days
  Median TTE: 37.7 days
[2]; [9]
  Regressions CR: 0
  Regressions PR: 0
  Regressions TFS: 0

B1: fusion protein of SEQ ID NO: 1: circularly permuted (cp) IL-2 variant fused to the extracellular domain of the IL-2Rα portion of the IL-2 receptor (protein)
chain: SKNFHLRPRDLISNINVIVLELKGSETTFMCEYADETATIVEFLNRWITFSQSIISTLTGGSSSTKKTQLQLEHLLLDLQMILNGINNYKNPKLTRMLTFKFYMPKKATELKHLQCLEEELKPLEEVLNLAQGSGGGSELCDDDPPEIPHATFKAMAYKEGTMLNCECKRGFRRIKSGSLYMLCTGNSSHSSWDNQCQCTSSATRNTTKQVTPQPEEQKERKTTEMQSPMQPVDQASLPGHCREPPPWENEATERIYHFVVGQMVYYQCVQGYRALHRGPAESVCKMTHGKTRWTQPQLICTG
modifications: Human cpIL-2IL-2R-alpha
notes: circularly permuted (cp) IL-2 variant fused to the extracellular domain of the IL-2Rα portion of the IL-2 receptor
[3]
  expansion of CD8+T cells and NK cells versus Tregs: activates expansion of CD8+T cells and NK cells in a dose dependent manner in the absence of dose dependent activation of Tregs

Reference: patent US11834483B2, “Immunostimulatory agents in combination with angiogenesis inhibitors” (Alkermes Pharma Ireland Limited, priority 2020, dated 2023)
